These molecules were tested on 403 WT human kinases (assay: DiscoverX scanMAX kinome-wide selectivity at 1 μM).
Assay type: binding

Row | SMILES | # scanMAX kinases with PoC < 10
1 | CC(C)(O)C#Cc1ccc2[nH]cc(-c3ccnc(N)n3)c2c1 [compound 3, 4-(3-(2-Aminopyrimidin-4-yl)-1H-indol-5-yl)-2-methylbut-3-yn-2-ol] | 34
2 | Cn1cncc1C#Cc1ccc2[nH]c3c(c2c1)-c1nc(N)ncc1CCCC3 [compound 27, 12-((1-Methyl-1H-imidazol-5-yl)ethynyl)-6,7,8,9-tetrahydro-5H-pyrimido[4′,5′:3,4]cycloocta[1,2-b]indol-2-amine] | 0
3 | Nc1ncc2c(n1)-c1c([nH]c3ccc(C#Cc4ccncc4)cc13)CCC2 [compound 5, 11-(Pyridin-4-ylethynyl)-5,6,7,8-tetrahydropyrimido[4′,5′:3,4]cyclohepta[1,2-b]indol-2-amine] | 5
4 | Nc1ncc2c(n1)-c1c([nH]c3ccc(C#Cc4ccncc4)cc13)CCCC2 [compound 6, 12-(Pyridin-4-ylethynyl)-6,7,8,9-tetrahydro-5H-pyrimido[4′,5′:3,4]cycloocta[1,2-b]indol-2-amine] | 0
5 | Nc1ncc2c(n1)-c1c([nH]c3ccc(-c4ccc(F)cc4)cc13)CCCC2 [compound 9, 12-(4-Fluorophenyl)-6,7,8,9-tetrahydro-5H-pyrimido[4′,5′:3,4]cycloocta[1,2-b]indol-2-amine] | 2
6 | CC(C)(O)C#Cc1ccc2[nH]c3c(c2c1)-c1nc(N)ncc1CCC3 [AMG28, 4-(2-Amino-5,6,7,8-tetrahydropyrimido[4′,5′:3,4]cyclohepta[1,2-b]indol-11-yl)-2-methylbut-3-yn-2-ol, reference compound] | 21
7 | Nc1ncc2c(n1)-c1c([nH]c3ccc(-c4ccc(F)cc4)cc13)CC2 [compound 7, 10-(4-Fluorophenyl)-6,7-dihydro-5H-pyrimido[5,4-c]carbazol-2-amine] | 3
8 | CN(C)CC#Cc1ccc2[nH]c3c(c2c1)-c1nc(N)ncc1CCCC3 [compound 29, 12-(3-(Dimethylamino)prop-1-yn-1-yl)-6,7,8,9-tetrahydro-5H-pyrimido[4′,5′:3,4]cycloocta[1,2-b]indol-2-amine] | 0
9 | CC(C)(O)C#Cc1ccc2[nH]c3c(c2c1)-c1nc(N)ncc1CC3 [compound 1, 4-(2-Amino-6,7-dihydro-5H-pyrimido[5,4-c]carbazol-10-yl)-2-methylbut-3-yn-2-ol] | 20
10 | CC(C)(C#Cc1ccc2[nH]c3c(c2c1)-c1nc(N)ncc1CCC3)CO [compound 23, 4-(2-Amino-5,6,7,8-tetrahydropyrimido[4′,5′:3,4]cyclohepta[1,2-b]indol-11-yl)-2,2-dimethylbut-3-yn-1-ol] | 11–14
11 | CC(C)C(O)C#Cc1ccc2[nH]c3c(c2c1)-c1nc(N)ncc1CCC3 (centres unmarked) [compound 11, 1-(2-Amino-5,6,7,8-tetrahydropyrimido[4′,5′:3,4]cyclohepta[1,2-b]indol-11-yl)-4-methylpent-1-yn-3-ol] | 7
12 | Cn1cc(-c2ccc3[nH]c4c(c3c2)-c2nc(N)ncc2CCC4)cn1 [compound 13, 11-(1-Methyl-1H-pyrazol-4-yl)-5,6,7,8-tetrahydropyrimido[4′,5′:3,4]cyclohepta[1,2-b]indol-2-amine] | 8
13 | Cn1cc(-c2ccc3[nH]c4c(c3c2)-c2nc(N)ncc2CC4)cn1 [compound 12, 10-(1-Methyl-1H-pyrazol-4-yl)-6,7-dihydro-5H-pyrimido[5,4-c]carbazol-2-amine] | 7
14 | CC(C)(O)C#Cc1ccc2[nH]c3c(c2c1)-c1nc(N)ncc1CCCC3 [compound 2, 4-(2-Amino-6,7,8,9-tetrahydro-5H-pyrimido[4′,5′:3,4]cycloocta[1,2-b]indol-12-yl)-2-methylbut-3-yn-2-ol] | 3
